Holding throughout (format): cell-based
One assay concerns the target hGcgR (Homo sapiens, UniProt P47871). Description: Functional cAMP activation in the presence of 0.1% casein (no HSA). To be noted: read-out: Relative cAMP EC50, hGcgR.
The target in assay [1] is T1, hGLP-1R (Homo sapiens, UniProt P43220). The assay is described as above. The settings on record: read-out: Relative cAMP EC50, hGLP-1R.
Assay [2] concerns the target T2, hGIPR (Homo sapiens, UniProt P48546).
T2 sequence (P48546 22-466): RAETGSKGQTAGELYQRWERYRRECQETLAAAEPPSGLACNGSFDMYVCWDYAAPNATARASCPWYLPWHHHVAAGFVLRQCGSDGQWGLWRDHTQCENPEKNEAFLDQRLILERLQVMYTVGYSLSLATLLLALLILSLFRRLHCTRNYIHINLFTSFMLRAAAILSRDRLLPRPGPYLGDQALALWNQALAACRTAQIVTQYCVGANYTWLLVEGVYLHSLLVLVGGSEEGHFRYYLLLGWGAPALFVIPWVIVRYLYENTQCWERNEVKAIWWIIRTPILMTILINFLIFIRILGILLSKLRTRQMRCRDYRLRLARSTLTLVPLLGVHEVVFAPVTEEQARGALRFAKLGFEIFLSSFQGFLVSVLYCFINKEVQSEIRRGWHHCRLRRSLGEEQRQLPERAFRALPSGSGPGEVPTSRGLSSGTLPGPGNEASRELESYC
Described as above. The settings on record: read-out: Relative cAMP EC50, hGIPR.

Assay [3] addresses T2, hGIPR. Put plainly: Functional cAMP activity in the presence of 1% HSA. To be noted: read-out: cAMP Rel EC50, hGIPR.
Assay [4] addresses T1, hGLP-1R. Put plainly: Functional cAMP activity in the presence of 1% HSA. The settings on record: read-out: cAMP Rel EC50, hGLP-1R.
Another assay concerns the target human GcgR (Homo sapiens, UniProt P47871). Put plainly: Functional cAMP activity in the presence of 1% HSA. The settings on record: read-out: cAMP Rel EC50, hGcgR.
The mark [5] stands for this setting: in the presence of 0.1% casein (no HSA), geometric mean.

Read-outs that look alike come from different tables or passages of the source. Starred links: 1 amine or outer side, 2 acyl side, 3 side chain; linkers in the order of their positions; H or OH if unused. Non-standard residues stand in square brackets, D forms with d. Groups on a side chain read outwards from the residue. No end group written: not given here. *: point of attachment. C18 diacid = O=C(O)CCCCCCCCCCCCCCCCC(=O)*; αMePhe(2-F) = C[C@](N)(Cc1ccccc1F)C(=O)O; γGlu = O=C(O)[C@H](CCC(=O)[*:2])N[*:1]; αMe4Pal = C[C@](N)(Cc1ccncc1)C(=O)O; αMeY = C[C@](N)(Cc1ccc(O)cc1)C(=O)O; 4Pal = N[C@@H](Cc1ccncc1)C(=O)O; αMeL = CC(C)C[C@](C)(N)C(=O)O; αMeS = C[C@](N)(CO)C(=O)O; Orn = NCCC[C@H](N)C(=O)O; AEEA = NCCOCCOCC(=O)O; Aib = CC(C)(N)C(=O)O
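For Relative cAMP EC50, hGIPR in this document: intracellular cAMP rise after 30 min at 37 °C read by HTRF against a standard curve, scaled between buffer alone (0%) and top control ligand concentration (100%), four-parameter fit.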
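For Relative cAMP EC50, hGLP-1R in this document: intracellular cAMP rise after 30 min at 37 °C read by HTRF, normalized between buffer only (0%) and maximal control ligand (100%), four-parameter variable-slope fit.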
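For Relative cAMP EC50, hGcgR in this document: intracellular cAMP rise after 30 min at 37 °C, read by HTRF against a cAMP standard curve, scaled from buffer only (0%) to maximal control ligand response (100%).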

T1 sequence (P43220 24-463): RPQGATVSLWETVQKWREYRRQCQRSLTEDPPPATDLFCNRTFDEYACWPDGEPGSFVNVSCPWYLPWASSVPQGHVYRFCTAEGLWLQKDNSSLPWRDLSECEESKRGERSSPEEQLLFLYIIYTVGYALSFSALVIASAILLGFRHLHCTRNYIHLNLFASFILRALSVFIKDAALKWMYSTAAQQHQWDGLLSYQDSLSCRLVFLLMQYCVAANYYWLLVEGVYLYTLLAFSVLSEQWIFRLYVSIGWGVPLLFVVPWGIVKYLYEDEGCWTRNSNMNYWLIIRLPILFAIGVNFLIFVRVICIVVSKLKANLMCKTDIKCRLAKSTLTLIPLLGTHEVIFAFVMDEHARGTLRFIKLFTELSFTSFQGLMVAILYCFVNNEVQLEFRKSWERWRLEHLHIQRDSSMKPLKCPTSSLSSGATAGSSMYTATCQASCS
Chain of hGcgR (P47871 26-477): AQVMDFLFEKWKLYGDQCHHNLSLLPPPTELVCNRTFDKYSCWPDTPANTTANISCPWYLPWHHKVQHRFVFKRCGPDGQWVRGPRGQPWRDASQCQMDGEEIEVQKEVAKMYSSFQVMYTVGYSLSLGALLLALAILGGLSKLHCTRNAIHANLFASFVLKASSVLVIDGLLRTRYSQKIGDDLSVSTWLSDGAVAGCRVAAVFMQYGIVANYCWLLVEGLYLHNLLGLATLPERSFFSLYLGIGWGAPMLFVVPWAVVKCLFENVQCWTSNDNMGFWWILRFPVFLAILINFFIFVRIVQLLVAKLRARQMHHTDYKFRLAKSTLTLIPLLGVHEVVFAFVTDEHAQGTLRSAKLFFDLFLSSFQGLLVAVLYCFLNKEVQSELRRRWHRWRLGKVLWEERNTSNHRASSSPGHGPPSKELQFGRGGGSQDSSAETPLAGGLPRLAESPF
Chain of human GcgR (P47871 26-477): as above

Regarding `CC[C@H](C)[C@H](NC(=O)[C@H](Cc1ccccc1)NC(=O)[C@H](C)NC(=O)C(C)(C)NC(=O)[C@H](CCC(N)=O)NC(=O)[C@H](C)NC(=O)[C@H](CCCCNC(=O)COCCOCCNC(=O)CC[C@H](NC(=O)CCCCCCCCCCCCCCCCC(=O)O)C(=O)O)NC(=O)[C@H](CCCCN)NC(=O)[C@H](CC(=O)O)NC(=O)[C@H](CC(C)C)NC(=O)[C@](C)(CC(C)C)NC(=O)[C@H](CCCCN)NC(=O)[C@H](CO)NC(=O)[C@H](Cc1ccncc1)NC(=O)[C@H](CC(=O)O)NC(=O)[C@H](CO)NC(=O)[C@@H](NC(=O)[C@H](Cc1ccccc1)NC(=O)[C@@H](NC(=O)CNC(=O)[C@H](CCC(N)=O)NC(=O)C(C)(C)NC(=O)[C@@H](N)Cc1ccc(O)cc1)[C@@H](C)O)[C@@H](C)O)C(=O)N[C@@H](CCC(=O)O)C(=O)N[C@@H](Cc1ccc(O)cc1)C(=O)N[C@@H](CC(C)C)C(=O)N[C@H](C(=O)N[C@@H](CCC(=O)O)C(=O)N[C@H](C)C(=O)NCC(=O)N[C@@H](CCC(=O)O)C(=O)N[C@@H](CO)C(=O)N[C@@H](CO)C(=O)NCC(=O)N[C@@H](C)C(=O)N1CCC[C@H]1C(=O)N1CCC[C@H]1C(=O)N1CCC[C@H]1C(=O)N[C@@H](CO)C(=O)NCC(=O)N[C@@H](CO)C(N)=O)[C@@H](C)CC` [Example 283], the EC50 at hGcgR (setting [5]) is 9.73 nM; on hGLP-1R [1] (setting [5]) it was 1.16 nM; on hGIPR [2] (setting [5]), 0.225 nM; on hGIPR [3], 47.2 nM; at hGLP-1R [4], 233 nM; at human GcgR it was 1470 nM.
Consider “Y[Aib]QGT[αMePhe(2-F)]TSD[4Pal][αMeS]I[αMeL]LD[Orn]K([γGlu-γGlu-C18 diacid])AQ[Aib]NFI[dE][αMeY]LQEGGPSSGEPPPEGTE-NH2 [Example 526]”, for which the EC50 was 8.62 nM on hGcgR; 0.421 nM on hGLP-1R [1]; 0.0364 nM on hGIPR [2]; 2.12 nM on hGIPR [3]; 22.9 nM at hGLP-1R [4]; 530 nM on human GcgR.
With “H-Y[Aib]QGT[αMePhe(2-F)]TSD[4Pal][αMeS]I[αMeL]LD[Orn]K([AEEA-γGlu-C18 diacid])AQ[Aib][Orn]FI[dE]YLIEGGPSSGEPPPSGTE-NH2 [Example 501]”, the EC50 on hGcgR is 4.54 nM; at hGLP-1R [1] it was 0.401 nM; on hGIPR [2], 0.0373 nM; at hGIPR [3], 2.32 nM; on hGLP-1R [4], 38 nM; at human GcgR, 455 nM.
Turning to “H-Y[Aib]QGTFTSD[4Pal]SQ[αMeL]LDKK([AEEA-γGlu-C18 diacid])AQ[Aib]AFIE[αMeY]LIEGGPSSGAPPPEGS-NH2 [Example 853]”, the EC50 at hGcgR (setting [5]) is 26.5 nM; on hGLP-1R [1] (setting [5]), 0.507 nM; on hGIPR [2] (setting [5]) it was 0.224 nM; on hGIPR [3], 32.4 nM; at hGLP-1R [4] it was 102 nM; at human GcgR, 4500 nM.
Turning to “H-Y[Aib]QGTFTSD[4Pal]SQ[αMeL]LDKK([AEEA-AEEA-γGlu-C18 diacid])AQ[αMe4Pal]AFIEYLIE[Aib]GPSSGAPPPSGS-NH2 [Example 816]”, the EC50 on hGcgR (setting [5]) was 6.57 nM; on hGLP-1R [1] (setting [5]), 2.69 nM; on hGIPR [2] (setting [5]) it was 0.297 nM; at hGIPR [3] it was 15.9 nM; at hGLP-1R [4], 310 nM; at human GcgR, 1100 nM.
Turning to “Y[Aib]QGTFTSD[4Pal]SQ[αMeL]LDKK([γGlu-dE-dE-C18 diacid])AQ[αMe4Pal]AFIEYLIE[Aib]GPSSGAPPPSGSEE-NH2 [Example 930]”, the EC50 on hGcgR (setting [5]) is 13 nM; at hGLP-1R [1] (setting [5]), 11 nM; on hGIPR [2] (setting [5]) it was 0.244 nM; at hGIPR [3] it was 19.9 nM; at hGLP-1R [4], 824 nM; on human GcgR, 1700 nM.
For “Y[Aib]QGTFTSD[4Pal]SQ[αMeL]LDKK([Glu-γGlu-C18 diacid])AQ[αMe4Pal]AFIEYLIAGGPSSGAPPPSGE-NH2 [Example 1086]”, the EC50 stood at 12 nM at hGcgR (setting [5]); 1.23 nM on hGLP-1R [1] (setting [5]); 0.117 nM at hGIPR [2] (setting [5]); 21.2 nM at hGIPR [3]; 496 nM on hGLP-1R [4]; 3140 nM at human GcgR.
